Patent publication US10195179B2, “Spiro-lactam NMDA receptor modulators and uses thereof” (Aptinyx Inc., priority 2016, dated 2019)
Like-named read-outs stand apart in the source and are kept apart here.

Tests used:
[1] = Microsomal stability, human; assay type: in vitro ADME; details: human microsomes
Protocol: Microsomal stability for Compound AA and Compound BB was investigated. The following table indicates the percent of Compound AA and Compound BB remaining after 60 minutes.

[2] = Bioavailability and CSF/brain/plasma exposure after PO administration; assay type: in vivo, Sprague Dawley rats; details: rat; for Kp: male, Sprague Dawley, 10 mg/kg PO
Protocol: The bioavailablity of Compound BB was investigated following PO administration. CSF, brain and plasma samples were analyzed following dosing with compound BB (10 mg/kg). The following table indicates the bioavailablity and CSF/plasma and brain/plasma ratios.
Sprague Dawley rats were dosed intravenously with 2 mg/kg of Compound AA. A second group of Sprague Dawley rats was dosed per os with 10 mg/kg of compound AA. Plasma samples were drawn over a 24 h period and analyzed for Compound AA. FIG. 3A presents the mean plasma concentration-time profile of Compound AA following the single intraveneous (2 mg/kg) and oral (10 mg/kg) dose administration in male Sprague Dawley rats over the 24 hour period.
In another experiment. Sprague Dawley rats were dosed intravenously with 2 mg/kg of Compound BB. A second group of Sprague Dawley rats was dosed per os with 10 mg/kg of compound BB. Plasma samples were drawn over a 24 h period and analyzed for Compound BB. FIG. 3B presents the mean plasma concentration-time profile of Compound BB following the single intraveneous (2 mg/kg) and oral (10 mg/kg) dose administration in male Sprague Dawley rats over the 24 hour period.
In another experiment, Sprague Dawley rats were dosed per os with 10 mg/kg of Compound BB. Plasma, brain, and CSF samples were analyzed at various time points over a 24 hour period.

NR2C = NR2C (Homo sapiens, UniProt Q14957); experiment: Potentiation of [3H]MK-801 binding, wild-type NMDAR2C; parameters: species or system rat
Protocol: (§1) Assays were conducted as described by Moskal et al., “GLYX-13: a monoclonal antibody-derived peptide that acts as an N-methyl-D-aspartate receptor modulator,” Neuropharmacology, 49, 1077-87, 2005. The potentiation of [^3H]MK-801 binding (5 nM; 22.5 Ci/mmol) to well washed rat cortical membranes (200 μg) was measured under non-equilibrium conditions (15 min @ 25° C.) in the presence of increasing concentrations of Compound AA or Compound BB.
(§2) FIG. 2A depicts the potentiation of [^3H]MK-801 binding for wild-type NMDAR2 subtypes in the presence of Compound AA. FIG. 2B depicts the potentiation of [^3H]MK-801 binding for wild-type NMDAR2 subtypes in the presence of Compound BB. The following table depicts the results (P means potency and A means activity): […]

NR2D = NR2D (Homo sapiens, UniProt O15399); experiment: Potentiation of [3H]MK-801 binding, wild-type NMDAR2D; parameters: species or system rat
Protocol: as §1, §2

Sprague Dawley rats = experiment: Bennett model of mechanical analgesia (paw withdrawal threshold); assay type: in vivo, rat; details: 0.1-10 mg/kg PO; tested 1 h, 24 hrs and 1 week post-dosing
Protocol: Bennett G J, Xie Y K, “A peripheral mononeuropathy in rat that produces disorders of pain sensation like those seen in man,” Pain 33:87-107, 1988. […] Vehicle animals receive the surgery and then receive vehicle rather than test compound. Animals were tested 1 hr, 24 h and 1 wk post-test compound or vehicle administration.
Male 2-3 month old Sprague Dawley rats were used. Harlan was the supplier for all studies. Rats were housed in Lucite cages with aspen wood chip bedding, maintained on a 12:12 light:dark cycle (lights on at 5 AM), and given ad libitum access to Purina lab chow (USA) and tap water throughout the study.
Rats were anesthetized using inhaled isoflurane (2.5%). Spared nerve injury surgery was performed as previously described (Bennett and Xie, 1988). An incision (˜1.5 cm in length) was made with a scalpel blade dorsally through skin on the right hindlimb, parallel and posterior to femur. Using a small pointed hemostat, the biceps femoris and gluteus superficialis muscles were separated. Using curved blunt forceps, the common sciatic nerve was isolated and exposed. For the mechanical analgesia studies, the whole sciatic nerve was ligated. Using hemostats/forceps and chromic gut (5-0), the nerve was loosely ligated with a square knot; 3 ligatures, 1 mm apart were placed on the nerve. […]

[3] = potentiation of [3H]MK-801 binding

Chain of NR2D (O15399 28-1336, species assumed, other chains not shown): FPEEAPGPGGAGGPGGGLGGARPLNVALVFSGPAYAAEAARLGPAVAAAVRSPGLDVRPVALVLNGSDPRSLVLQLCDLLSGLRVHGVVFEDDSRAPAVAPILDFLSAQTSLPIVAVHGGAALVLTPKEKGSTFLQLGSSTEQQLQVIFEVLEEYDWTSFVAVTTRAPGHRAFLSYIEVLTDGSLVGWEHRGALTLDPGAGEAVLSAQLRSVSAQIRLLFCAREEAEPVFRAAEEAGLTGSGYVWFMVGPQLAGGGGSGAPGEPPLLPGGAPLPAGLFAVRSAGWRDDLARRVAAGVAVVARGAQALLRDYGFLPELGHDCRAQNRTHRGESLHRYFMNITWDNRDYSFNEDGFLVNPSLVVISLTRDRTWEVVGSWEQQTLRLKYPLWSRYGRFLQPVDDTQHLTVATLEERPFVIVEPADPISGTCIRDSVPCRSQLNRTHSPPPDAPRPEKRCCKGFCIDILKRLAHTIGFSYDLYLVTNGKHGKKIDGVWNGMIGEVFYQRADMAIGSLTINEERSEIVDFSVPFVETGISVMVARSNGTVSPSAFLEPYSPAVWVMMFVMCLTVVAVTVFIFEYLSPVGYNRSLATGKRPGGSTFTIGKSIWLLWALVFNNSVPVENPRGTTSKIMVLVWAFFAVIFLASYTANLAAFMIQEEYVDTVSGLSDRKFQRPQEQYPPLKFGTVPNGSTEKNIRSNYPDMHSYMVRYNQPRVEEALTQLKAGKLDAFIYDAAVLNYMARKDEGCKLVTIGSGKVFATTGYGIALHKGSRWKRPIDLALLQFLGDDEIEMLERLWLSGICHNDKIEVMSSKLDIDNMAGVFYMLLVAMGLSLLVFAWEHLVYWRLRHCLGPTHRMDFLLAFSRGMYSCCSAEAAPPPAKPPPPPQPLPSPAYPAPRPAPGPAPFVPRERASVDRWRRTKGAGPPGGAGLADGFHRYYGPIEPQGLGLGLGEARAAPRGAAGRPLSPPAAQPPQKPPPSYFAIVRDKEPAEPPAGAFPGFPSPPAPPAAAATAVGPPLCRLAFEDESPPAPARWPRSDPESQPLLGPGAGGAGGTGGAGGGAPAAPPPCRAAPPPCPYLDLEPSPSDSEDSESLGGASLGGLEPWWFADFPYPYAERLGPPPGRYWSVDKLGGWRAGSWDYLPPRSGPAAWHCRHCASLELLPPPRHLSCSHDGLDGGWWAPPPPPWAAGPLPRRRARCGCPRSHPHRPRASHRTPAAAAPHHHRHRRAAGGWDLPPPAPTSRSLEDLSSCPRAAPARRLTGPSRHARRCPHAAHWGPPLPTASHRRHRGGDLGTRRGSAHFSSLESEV
Chain of NR2C (Q14957 20-1233, species assumed, other chains not shown): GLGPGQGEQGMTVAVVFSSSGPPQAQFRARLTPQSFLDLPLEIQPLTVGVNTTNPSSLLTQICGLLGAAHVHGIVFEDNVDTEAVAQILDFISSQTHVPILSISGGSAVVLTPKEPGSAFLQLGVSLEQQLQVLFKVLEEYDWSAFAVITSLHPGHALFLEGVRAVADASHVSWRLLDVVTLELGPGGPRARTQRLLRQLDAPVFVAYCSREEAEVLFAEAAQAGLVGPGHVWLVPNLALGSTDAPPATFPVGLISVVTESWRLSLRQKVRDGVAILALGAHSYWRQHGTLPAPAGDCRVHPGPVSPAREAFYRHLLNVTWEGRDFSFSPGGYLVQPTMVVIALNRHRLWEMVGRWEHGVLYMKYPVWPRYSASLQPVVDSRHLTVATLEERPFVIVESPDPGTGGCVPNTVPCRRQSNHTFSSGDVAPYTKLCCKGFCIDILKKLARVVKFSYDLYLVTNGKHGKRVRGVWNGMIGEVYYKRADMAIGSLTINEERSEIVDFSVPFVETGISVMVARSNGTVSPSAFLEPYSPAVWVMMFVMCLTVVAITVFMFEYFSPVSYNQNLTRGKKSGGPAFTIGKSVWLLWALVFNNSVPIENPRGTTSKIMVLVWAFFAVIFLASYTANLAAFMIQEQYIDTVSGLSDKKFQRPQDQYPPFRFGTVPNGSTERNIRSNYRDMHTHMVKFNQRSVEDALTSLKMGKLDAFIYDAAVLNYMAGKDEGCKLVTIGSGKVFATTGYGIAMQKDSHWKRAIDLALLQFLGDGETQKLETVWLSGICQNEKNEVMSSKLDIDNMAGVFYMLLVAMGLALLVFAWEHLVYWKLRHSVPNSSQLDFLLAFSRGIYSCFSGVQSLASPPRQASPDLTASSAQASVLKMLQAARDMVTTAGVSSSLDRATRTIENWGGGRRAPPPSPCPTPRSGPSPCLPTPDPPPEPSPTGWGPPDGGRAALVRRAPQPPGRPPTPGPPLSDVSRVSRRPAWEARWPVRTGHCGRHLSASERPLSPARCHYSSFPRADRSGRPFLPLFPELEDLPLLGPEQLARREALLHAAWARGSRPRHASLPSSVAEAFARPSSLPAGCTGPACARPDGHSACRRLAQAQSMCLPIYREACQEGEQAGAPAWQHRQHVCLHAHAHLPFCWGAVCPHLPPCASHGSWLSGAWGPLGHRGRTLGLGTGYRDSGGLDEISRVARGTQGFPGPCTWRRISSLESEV

Microsomal Stability (% remaining at 60 min) Human [1]: 92%
Kp ([2]; CSF, read-out: CSF/plasma ratio): 0.48
Kp ([2]; brain, read-out: Brain/plasma ratio): 0.12
bioavailability ([2]; plasma, PO administration (10 mg/kg PO, 2 mg/kg IV), male Sprague Dawley rats, read-out: Bioavailablity (% F)): 82%
NR2C A (%) (activity) (NR2C; [3]): 0%
NMDAR2C BINDING PROFILE % 1 mM Glycine (NR2C; relative to 1 mM glycine): 0%
binding to NR2C (in words) (NR2C; statement in description): substantially no binding
NMDAR2C BINDING PROFILE Conclusion (NR2C; wild-type NMDAR2C): WT2C no
NR2D A (%) (activity) (NR2D; [3]): 57.41%
EC50 (NR2D; potentiation of [3H]MK-801 binding, 0 = no activity, read-out: NR2D P (M) (potency) (converted)): 5.62e-11 M
NMDAR2D BINDING PROFILE % 1 mM Glycine (NR2D; relative to 1 mM glycine): 57.41%
binding to NR2D (in words) (NR2D; statement in description): binds
NMDAR2D BINDING PROFILE Conclusion (NR2D; wild-type NMDAR2D): WT2D agonist
EC50 (NR2D; wild-type NMDAR2D, read-out: NMDAR2D BINDING PROFILE −logEC50 (converted)): 5.62e-11 M
SMILES: C[C@@H](O)[C@@H](C(N)=O)N1C[C@@]2(CCCN2S(C)(=O)=O)C1=O [Compound BB, (2S,3R)-3-hydroxy-2-((S)-5-(methylsulfonyl)-1-oxo-2,5-diazaspiro[3,4]octan-2-yl)butanamide]
analgesic effects (paw withdrawal threshold) (Sprague Dawley rats): analgesic effects
